Source: patent US20260138980A1, “SPIRO COMPOUNDS AND USES THEREOF IN THE FIELD OF MEDICINE” (Kind Pharmaceutical, priority 2023, published 2026)

Tested on: EPO
Experiment: Determination of EPO inhibition rate by compounds using Hep3B cells (EPO ELISA of culture supernatant)
Assay type: cell-based
Details: Homo sapiens, EPO induced with 30 μM (6′-hydroxy-3′-(4-methoxyphenyl)-8′-oxo-8′H-spiro[cyclopentane-1,5′-indolizine]-7′-carbonyl)glycine or its analogues, test compound 48 hours
Procedure: Hep3B cells (from the Cell Bank of the Chinese Academy of Sciences, TCHu106) were seeded in a plate at a density of 5×10^4/mL and incubated overnight at 37° C. in a 5% CO2 incubator (Thermo Scientific BB150). The next day, the culture medium was replaced with medium containing 0.5% FBS (VivaCell C04001-500) to starve the cells for 6 hours. Subsequently, a DMSO solution of (6′-hydroxy-3′-(4-methoxyphenyl)-8′-oxo-8′H-spiro[cyclopentane-1,5′-indolizine]-7′-carbonyl)glycine or its analogues was added to achieve a final concentration of 30 μM. The plate was returned to the 37° C., 5% CO2 incubator for an additional 24 hours. Then, a DMSO solution of the test compound was added to achieve final concentrations of 30000 nM, 7500 nM, 1875 nM, 469 nM, 117 nM, 29 nM, 7.3 nM, 1.8 nM, 0.5 nM, and 0 nM (ten concentrations in total). Treatment continued for 48 hours. Cell culture supernatants were collected for EPO ELISA detection. The assay was performed according to the instructions of the ELISA kit (Sangon Biotech (Shanghai) Co., Ltd., D711311-0096). Absorbance was read at a wavelength of 450 nm using a microplate reader (Thermo Scientific Multiskan Go, 511191200).
The compound inhibition rate was calculated using the formula: Inhibition Rate=1-100%*(EPO value of the treated well−EPO value of the blank well)/(EPO value of the Control well−EPO value of the blank well). The IC50 value was calculated by linear fitting of the inhibition rates. Herein, the Control well refers to the cell-containing well treated for 72 hours with a DMSO solution containing 0 nM of the test compound but containing 30 μM of (6′-hydroxy-3′-(4-methoxyphenyl)-8′-oxo-8′H-spiro[cyclopentane-1,5′-indolizine]-7′-carbonyl)glycine or its analogues. The EPO level in this well was set as 100%. The blank well refers to a cell-containing well without the addition of any compound.

SMILES | IC50 [nM]
FC1=CCC2(CN3C=C(C(F)(F)F)C=C(OC(F)F)C3=N2)c2ccc(Br)c(F)c21 (stereo not shown) [Example 11, 6′-Bromo-8-difluoromethoxy-4′,5′-difluoro-6-trifluoromethyl-2′H,3H-spiro[imidazo[1,2-a]pyridine-2,1′-naphthalene]] | 12.2
FC(F)OC1=CC(C(F)(F)F)=CN2C[C@@]3(CC=Cc4c3ccnc4Cl)N=C12 (single isomer, unassigned) [Example 2-B] | 18.7
CC1=CCC2(CN3C=C(C(F)(F)F)C=C(OC(F)F)C3=N2)c2ccnc(Cl)c21 (stereo not shown) [Example 6, 1′-Chloro-8-difluoromethoxy-8′-methyl-6-trifluoromethyl-3H,6′H-spiro[imidazo[1,2-a]pyridine-2,5′-isoquinoline]] | 181
FC1=Cc2c(ccnc2Cl)C2(C1)CN1C=C(C(F)(F)F)C=C(OC(F)F)C1=N2 (racemic) [Example 10, 1′-Chloro-8-difluoromethoxy-7′-fluoro-6-trifluoromethyl-3H,6′H-spiro[imidazo[1,2-a]pyridine-2,5′-isoquinoline]] | 26.8
FC(F)OC1=CC(C(F)(F)F)=CN2CC3(CC=Cc4c3ccnc4Cl)N=C12 (racemic) [Example 2, 1′-Chloro-8-difluoromethoxy-6-trifluoromethyl-3H,6′H-spiro[imidazo[1,2-a]pyridine-2,5′-isoquinoline]] | 35.8
FC1=Cc2c(ccnc2Cl)[C@]2(C1)CN1C=C(C(F)(F)F)C=C(OC(F)F)C1=N2 (single isomer, unassigned) [Example 10-A] | 2150
FC(F)OC1=CC(C(F)(F)F)=CN2C[C@]3(CC=Cc4c3ccnc4Cl)N=C12 (single isomer, unassigned) [Example 2-A] | 365
FC1=CC[C@]2(CN3C=C(C(F)(F)F)C=C(OC(F)F)C3=N2)c2ccnc(Cl)c21 (single isomer, unassigned) [Example 1-B] | 563
FC1=CCC2(CN3C=C(C(F)(F)F)C=C(OC(F)F)C3=N2)c2ccnc(Cl)c21 (racemic) [Example 1, 1′-Chloro-8-difluoromethoxy-8′-fluoro-6-trifluoromethyl-3H,6′H-spiro[imidazo[1,2-a]pyridine-2,5′-isoquinoline]] | 29
FC(F)OC1=CC(C(F)(F)F)=CN2CC3(CC(Cl)=Cc4c3ccnc4Cl)N=C12 (stereo not shown) [Example 9, 1′,7′-Dichloro-8-difluoromethoxy-6-trifluoromethyl-3H,6′H-spiro[imidazo[1,2-a]pyridine-2,5′-isoquinoline]] | 47.9
FC1=Cc2c(ccnc2Cl)[C@@]2(C1)CN1C=C(C(F)(F)F)C=C(OC(F)F)C1=N2 (single isomer, unassigned) [Example 10-B] | 26.9
FC(F)OC1=CC(C(F)(F)F)=CN2CC3(CC=C(Cl)c4c3ccnc4Cl)N=C12 (stereo not shown) [Example 7, 1′,8′-Dichloro-8-difluoromethoxy-6-trifluoromethyl-3H,6′H-spiro[imidazo[1,2-a]pyridine-2,5′-isoquinoline]] | 24.4
FC(F)OC1=CC(C(F)(F)F)=CN2CC3(CC=C(C(F)(F)F)c4c3ccnc4Cl)N=C12 (stereo not shown) [Example 8, 1′-Chloro-8-difluoromethoxy-6,8′-bis(trifluoromethyl)-3H,6′H-spiro[imidazo[1,2-a]pyridine-2,5′-isoquinoline]] | 148
FC1=CC[C@@]2(CN3C=C(C(F)(F)F)C=C(OC(F)F)C3=N2)c2ccnc(Cl)c21 (single isomer, unassigned) [Example 1-A] | 17.9

Further lines, results first:

IC50 [nM] | SMILES
20.4 | Fc1cccc2c1C=CC[C@]21CN2C=C(C(F)(F)F)C=C(OC(F)F)C2=N1 (single isomer, unassigned) [Example 16-B]
302 | Fc1cccc2c1C(I)=CCC21CN2C=C(C(F)(F)F)C=C(OC(F)F)C2=N1 (stereo not shown) [Example 19, 8-Difluoromethoxy-5′-fluoro-4′-iodo-6-trifluoromethyl-2′H,3H-spiro[imidazo[1,2-a]pyridine-2,1′-naphthalene]]
7.01 | Fc1cccc2c1C=CCC21CN2C=C(C(F)(F)F)C=C(OC(F)F)C2=N1 (racemic) [Example 16, 8-(Difluoromethoxy)-5′-fluoro-6-trifluoromethyl-2′H,3H-spiro[imidazo[1,2-a]pyridine-2,1′-naphthalene]]
3.48 | Cc1ccc2c(c1F)C=CCC21CN2C=C(C(F)(F)F)C=C(OC(F)F)C2=N1 (stereo not shown) [Example 18, 8-Difluoromethoxy-5′-fluoro-6′-methyl-6-trifluoromethyl-2′H,3H-spiro[imidazo[1,2-a]pyridine-2,1′-naphthalene]]
497 | O=[N+]([O-])c1c(Nc2cc(F)cc(Cl)c2)ccc2nonc12 [positive control compound, reference compound]
6.45 | Fc1cccc2c1C=CC[C@@]21CN2C=C(C(F)(F)F)C=C(OC(F)F)C2=N1 (single isomer, unassigned) [Example 16-A]
4.12 | Fc1c(Br)ccc2c1C(Cl)=CCC21CN2C=C(C(F)(F)F)C=C(OC(F)F)C2=N1 (stereo not shown) [Example 14, 6′-Bromo-4′-chloro-8-difluoromethoxy-5′-fluoro-6-trifluoromethyl-2′H,3H-spiro[imidazo[1,2-a]pyridine-2,1′-naphthalene]]
116 | Fc1c(Br)ccc2c1C(I)=CCC21CN2C=C(C(F)(F)F)C=C(OC(F)F)C2=N1 (stereo not shown) [Example 13, 6′-Bromo-8-difluoromethoxy-5′-fluoro-4′-iodo-6-trifluoromethyl-2′H,3H-spiro[imidazo[1,2-a]pyridine-2,1′-naphthalene]]
813 | FC(F)OC1=CC(C(F)(F)F)=CN2CC3(CC=Cc4cnccc43)N=C12 (stereo not shown) [Example 20, 8-Difluoromethoxy-6-trifluoromethyl-3H,6′H-spiro[imidazo[1,2-a]pyridine-2,5′-isoquinoline]]
705 | Cc1nccc2c1C=CCC21CN2C=C(C(F)(F)F)C=C(OC(F)F)C2=N1 (stereo not shown) [Example 17, 8-Difluoromethoxy-1′-methyl-6-trifluoromethyl-3H,6′H-spiro[imidazo[1,2-a]pyridine-2,5′-isoquinoline]]
2.12 | FC1=CC[C@@]2(CN3C=C(C(F)(F)F)C=C(OC(F)F)C3=N2)c2cccc(F)c21 (single isomer, unassigned) [Example 15-A]
1.08 | Fc1c(Br)ccc2c1C=CCC21CN2C=C(C(F)(F)F)C=C(OC(F)F)C2=N1 (stereo not shown) [Example 12, 6′-Bromo-8-(difluoromethoxy)-5′-fluoro-6-(trifluoromethyl)-2′H,3H-spiro[imidazo[1,2-a]pyridine-2,1′-naphthalene]]
109 | FC1=CC[C@]2(CN3C=C(C(F)(F)F)C=C(OC(F)F)C3=N2)c2cccc(F)c21 (single isomer, unassigned) [Example 15-B]
3.04 | FC1=CCC2(CN3C=C(C(F)(F)F)C=C(OC(F)F)C3=N2)c2cccc(F)c21 (racemic) [Example 15, 8-(Difluoromethoxy)-4′,5′-difluoro-6-(trifluoromethyl)-2′H,3H-spiro[imidazo[1,2-a]pyridine-2,1′-naphthalene]]
